# In patent US7084133B2, “Dicarba-closo-dodecaborane derivatives” (priority 2001, dated 2006):
# Test system: promyelocytic leukemia strain HL-60
# Experiment: Test for induction of cell differentiation in HL-60 cells (NBT reducing ability), compound alone or with coexistence of VD3
# Type: cell-based
# Settings: compound alone
# Protocol: Cell differentiation-inducing action was examined for each of the compounds obtained in the examples alone or with the coexistence of 1×10^−8 M1α,25-dihydroxyvitamin D3 (VD3). According to the method described in Japanese Patent Unexamined Publication (Kokai) No. 61–76440, cell differentiation of promyelocytic leukemia strain HL-60 into granulocytic series was determined based on morphological change and measurement of ability to reduce nitroblue tetrazolium (NBT). The values in the table indicate ratios (%) of differentiated cells calculated from the NBT reducing ability, and the row represented by “VD3” indicates the results obtained by using vitamin D3.
compound,measurement,setting,value
"C=C1/C(=C\C=C2/CCC[C@]3(C)[C@@H]([C@H](C)CCCC(C)(C)O)CC[C@@H]23)C[C@@H](O)C[C@@H]1O [VD3, 1α,25-dihydroxyvitamin D3]",ratios (%) of differentiated cells calculated from the NBT reducing ability,Log Concentration (M) −7,75%
same,ratios (%) of differentiated cells calculated from the NBT reducing ability,Log Concentration (M) −8,41%
same,ratios (%) of differentiated cells calculated from the NBT reducing ability,Log Concentration (M) −9,7%
